Test results as given in ChEMBL document CHEMBL4196112, “Design of Selective sPLA2-X Inhibitor (-)-2-{2-[Carbamoyl-6-(trifluoromethoxy)-1H-indol-1-yl]pyridine-2-yl}propanoic Acid” (ACS Med Chem Lett, 2018).
Active and inactive are the calls of the source. No cut-off for these calls is given here.

How the values were obtained:
[1] = molecular target: T1, Group 10 secretory phospholipase A2 (Homo sapiens, UniProt O15496); experiment: Inhibition of sPLA2-10 (unknown origin) using 1-palmitoyl-2-oleoyl-sn-glycero-3-phosphocholine as substrate pretreated for 20 mins followed by substrate addition and measured after 60 mins by NEFA based assay
T1 sequence (O15496 whole entry): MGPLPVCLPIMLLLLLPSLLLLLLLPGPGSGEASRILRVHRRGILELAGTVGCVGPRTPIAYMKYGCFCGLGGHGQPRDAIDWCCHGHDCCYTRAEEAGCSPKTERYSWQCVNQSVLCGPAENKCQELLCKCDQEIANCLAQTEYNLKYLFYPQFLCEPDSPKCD

[2] = molecular target: T2, Phospholipase A2, membrane associated (Homo sapiens, UniProt P14555); experiment: Inhibition of sPLA2-2A (unknown origin) using 1-palmitoyl-2-oleoyl-sn-glycero-3-phosphocholine as substrate pretreated for 20 mins followed by substrate addition and measured after 60 mins by NEFA based assay
T2 sequence (P14555 whole entry): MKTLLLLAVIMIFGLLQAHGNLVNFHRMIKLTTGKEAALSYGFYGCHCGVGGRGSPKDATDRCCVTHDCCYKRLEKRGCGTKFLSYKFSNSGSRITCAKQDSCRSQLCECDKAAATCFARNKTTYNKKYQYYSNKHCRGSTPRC

[3] = molecular target: T3, Phospholipase A2 group V (Homo sapiens, UniProt P39877); experiment: Inhibition of sPLA2-5 (unknown origin) using 1-palmitoyl-2-oleoyl-sn-glycero-3-phosphocholine as substrate pretreated for 20 mins followed by substrate addition and measured after 60 mins by NEFA based assay
T3 sequence (P39877 whole entry): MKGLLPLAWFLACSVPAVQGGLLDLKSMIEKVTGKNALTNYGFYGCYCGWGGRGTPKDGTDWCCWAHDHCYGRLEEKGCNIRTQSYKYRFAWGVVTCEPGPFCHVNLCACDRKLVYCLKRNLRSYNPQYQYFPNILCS

[4] = molecular target: T1, Group 10 secretory phospholipase A2; experiment: Inhibition of recombinant human sPLA2-10 using human HDL as substrate pretreated for 20 mins followed by substrate addition and measured after 60 mins by NEFA based assay
[5] = Lipophilicity, log D of compound at pH 7.4; conditions: buffer
[6] = organism: Homo sapiens; experiment: Selectivity ratio of IC50 for sPLA2-2A (unknown origin) to IC50 for sPLA2-10 (unknown origin)
[7] = organism: Homo sapiens; experiment: Selectivity ratio of IC50 for sPLA2-5 (unknown origin) to IC50 for sPLA2-10 (unknown origin)
[8] = test system: Mus musculus; experiment: Unbound clearance in C57Bl/6J mouse administered iv or po; type: ADME, organism-based; conditions: in vivo
[9] = Intrinsic clearance in human hepatocytes assessed per million cells; type: ADME, cell-based, Hepatocyte; conditions: read-out: CLH
[10] = test system: Mus musculus; experiment: Anti-atherosclerosis activity in ApoE knockout pro-atherogenic western diet-induced Tac mouse carotid artery ligation model of atherosclerosis assessed as reduction in coronary flow reserve at 75 to 150 umol/kg/day mixed with food measured for 3 weeks by doppler echocardiography; type: functional, organism-based
[11] = molecular target: Group 10 secretory phospholipase A2 (Mus musculus) (UniProt Q9QXX3); experiment: Inhibition of mouse sPLA2-10
Group 10 secretory phospholipase A2 (Mus musculus), sequence (Q9QXX3 whole entry): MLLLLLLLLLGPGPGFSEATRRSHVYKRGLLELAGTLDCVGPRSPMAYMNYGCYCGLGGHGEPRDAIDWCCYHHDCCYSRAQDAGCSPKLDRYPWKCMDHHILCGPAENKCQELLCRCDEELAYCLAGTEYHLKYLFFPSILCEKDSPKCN

[12] = test system: Mus musculus; experiment: Anti-atherosclerosis activity in ApoE knockout pro-atherogenic western diet-induced Tac mouse carotid artery ligation model of atherosclerosis assessed as reduction in plasma free cholesterol levels at 75 umol/kg/day mixed with food measured for 3 weeks; type: functional, organism-based
[13] = test system: Mus musculus; experiment: Anti-atherosclerosis activity in ApoE knockout pro-atherogenic western diet-induced Tac mouse carotid artery ligation model of atherosclerosis assessed as reduction in plasma triglyceride levels at 75 umol/kg/day mixed with food measured for 3 weeks; type: functional, organism-based
[14] = test system: Mus musculus; experiment: Anti-atherosclerosis activity in ApoE knockout pro-atherogenic western diet-induced Tac mouse carotid artery ligation model of atherosclerosis assessed as reduction in plasma free fatty acid levels at 75 umol/kg/day mixed with food measured for 3 weeks; type: functional, organism-based
[15] = test system: Mus musculus; experiment: Anti-atherosclerosis activity in ApoE knockout pro-atherogenic western diet-induced Tac mouse carotid artery ligation model of atherosclerosis assessed as reduction in plasma esterified cholesterol levels at 75 umol/kg/day mixed with food measured for 3 weeks; type: functional, organism-based
[16] = test system: Mus musculus; experiment: Anti-atherosclerosis activity in ApoE knockout pro-atherogenic western diet-induced Tac mouse carotid artery ligation model of atherosclerosis assessed as reduction in plasma lipoprotein-associated cholesterol fraction levels at 75 umol/kg/day mixed with food measured for 3 weeks; type: functional, organism-based
[17] = test system: Mus musculus; experiment: Anti-atherosclerosis activity in ApoE knockout pro-atherogenic western diet-induced Tac mouse carotid artery ligation model of atherosclerosis assessed as reduction in plasma triglyceride levels at 150 umol/kg/day mixed with food measured for 3 weeks; type: functional, organism-based
[18] = test system: Mus musculus; experiment: Anti-atherosclerosis activity in ApoE knockout pro-atherogenic western diet-induced Tac mouse carotid artery ligation model of atherosclerosis assessed as reduction in plasma free fatty acid levels at 150 umol/kg/day mixed with food measured for 3 weeks; type: functional, organism-based
[19] = test system: Mus musculus; experiment: Anti-atherosclerosis activity in ApoE knockout pro-atherogenic western diet-induced Tac mouse carotid artery ligation model of atherosclerosis assessed as reduction in plasma esterified cholesterol levels at 150 umol/kg/day mixed with food measured for 3 weeks; type: functional, organism-based
[20] = test system: Mus musculus; experiment: Anti-atherosclerosis activity in ApoE knockout pro-atherogenic western diet-induced Tac mouse carotid artery ligation model of atherosclerosis assessed as reduction in plasma free cholesterol levels at 150 umol/kg/day mixed with food measured for 3 weeks; type: functional, organism-based
[21] = test system: Mus musculus; experiment: Anti-atherosclerosis activity in ApoE knockout pro-atherogenic western diet-induced Tac mouse carotid artery ligation model of atherosclerosis assessed as reduction in plasma lipoprotein-associated cholesterol fraction levels at 150 umol/kg/day mixed with food measured for 3 weeks; type: functional, organism-based
[22] = test system: Mus musculus; experiment: Anti-atherosclerosis activity in ApoE knockout pro-atherogenic western diet-induced Tac mouse carotid artery ligation model of atherosclerosis assessed as reduction in heart rate at 75 to 150 umol/kg/day mixed with food measured for 3 weeks by doppler echocardiography; type: functional, organism-based
[23] = test system: Mus musculus; experiment: Anti-atherosclerosis activity in ApoE knockout pro-atherogenic western diet-induced Tac mouse carotid artery ligation model of atherosclerosis assessed as reduction in thickness of artery wall at 75 to 150 umol/kg/day mixed with food measured for 3 weeks by ultrasound biomicroscopy; type: functional, organism-based
[24] = test system: Mus musculus; experiment: Anti-atherosclerosis activity in ApoE knockout pro-atherogenic western diet-induced Tac mouse carotid artery ligation model of atherosclerosis assessed as increase in lumen thickness at 75 to 150 umol/kg/day mixed with food measured for 3 weeks by ultrasound biomicroscopy; type: functional, organism-based
[25] = test system: Mus musculus; experiment: Anti-atherosclerosis activity in ApoE knockout pro-atherogenic western diet-induced Tac mouse carotid artery ligation model of atherosclerosis assessed as reduction in neointima and media formation at 75 to 150 umol/kg/day mixed with food measured for 3 weeks; type: functional, organism-based
[26] = molecular target: Group 10 secretory phospholipase A2 (Homo sapiens) (UniProt O15496)
[27] = molecular target: T4, Phospholipase A2 group V (Homo sapiens) (UniProt P39877); experiment: Inhibition of sPLA2-5 (unknown origin) at 10 uM using 1-palmitoyl-2-oleoyl-sn-glycero-3-phosphocholine as substrate pretreated for 20 mins followed by substrate addition and measured after 60 mins by NEFA based assay
T4 sequence (whole entry): T3 sequence (P39877 whole entry)

[28] = molecular target: Phospholipase A2, membrane associated (Homo sapiens) (UniProt P14555); experiment: Inhibition of sPLA2-2A (unknown origin) at 10 uM using 1-palmitoyl-2-oleoyl-sn-glycero-3-phosphocholine as substrate pretreated for 20 mins followed by substrate addition and measured after 60 mins by NEFA based assay

SMILES	IC50 [1] [nM]	IC50 [2] [nM]	IC50 [3] [nM]	IC50 [4] [nM]	also measured
CC(Cc1cccc(-n2c(C(N)=O)cc3ccc(OC(F)(F)F)cc32)c1)C(=O)O (stereo in doubt)	100	810	> 10000	2800	
C[C@@H](CC(=O)O)c1cccc(-n2c(C(N)=O)cc3ccc(OC(F)(F)F)cc32)c1	15	820	5100	110	logD [5]: 1.3; Ratio IC50 [6]: 60; Ratio IC50 [7]: 360; CL free [8]: 1025 mL/min/kg
NC(=O)c1cc2ccc(OC(F)(F)F)cc2n1-c1cc(CCC(=O)O)ccn1	110	290	720	640	hepatocyte CLint [9]: < 5 µL/min/1e6 cells
CC(CC(=O)O)c1cccc(-n2c(C(N)=O)cc3ccc(OC(F)(F)F)cc32)n1 (stereo in doubt; (-)-17)					Activity [10]: inactive; Ratio IC50 [6]: 45; Ratio IC50 [7]: 390; IC90 [11]: 820 nM; Activity [12]: inactive; Activity [13]: inactive; Activity [14]: inactive; Activity [15]: inactive; Activity [16]: inactive; Activity [17]: Active; Activity [18]: Active; Activity [19]: Active; Activity [20]: Active; Activity [21]: Active; Activity [22]: inactive; Activity [23]: inactive; Activity [24]: inactive; Activity [25]: inactive; IC90 [26]: 362 nM
CC(Cc1cccc(-n2c(C(N)=O)cc3ccc(OC(F)(F)F)cc32)c1)C(=O)O (stereo in doubt; 10)	32	57	510	350	
NC(=O)c1cc2ccc(OC(F)(F)F)cc2n1-c1ccc(CCC(=O)O)o1	430	1900	5900		
CC(Cc1cccc(-n2c(C(N)=O)cc3ccc(OC(F)(F)F)cc32)n1)C(=O)O (stereo in doubt)	570	1700	> 10000		
CC(Cc1cccc(-n2c(C(N)=O)cc3ccc(OC(F)(F)F)cc32)n1)C(=O)O (stereo in doubt; 14)	65	92	510	250	
CCC(Cc1cccc(-n2c(C(N)=O)cc3ccc(OC(F)(F)F)cc32)n1)C(=O)O (stereo in doubt; 15)	170	170	1900	330	
CC(Cc1ccnc(-n2c(C(N)=O)cc3ccc(OC(F)(F)F)cc32)c1)C(=O)O (stereo in doubt; 13)	140	44	180	830	
NC(=O)c1cc2ccc(OC(F)(F)F)cc2n1-c1cccc(CCC(=O)O)n1	29	470	2300	250	hepatocyte CLint [9]: < 5 µL/min/1e6 cells
C[C@H](CC(=O)O)c1cccc(-n2c(C(N)=O)cc3ccc(OC(F)(F)F)cc32)c1	200	3900	8600		
NC(=O)c1cc2ccc(OC(F)(F)F)cc2n1-c1cnn(CCC(=O)O)c1	> 10000	4500	2700		
CCC(Cc1cccc(-n2c(C(N)=O)cc3ccc(OC(F)(F)F)cc32)n1)C(=O)O (stereo in doubt)	940	840	> 10000		
NC(=O)c1cc2ccc(OC(F)(F)F)cc2n1-c1ccn(CCC(=O)O)n1	4800	4000			inhibition [27]: inactive
COC(Cc1cccc(-n2c(C(N)=O)cc3ccc(OC(F)(F)F)cc32)c1)C(=O)O (stereo in doubt; 11)	39	140	2100	140	
CC(C)(Cc1cccc(-n2c(C(N)=O)cc3ccc(OC(F)(F)F)cc32)n1)C(=O)O	320	3100	> 10000		
CC(Cc1ccnc(-n2c(C(N)=O)cc3ccc(OC(F)(F)F)cc32)c1)C(=O)O (stereo in doubt)	360	340	1600	3400	
NC(=O)c1cc2ccc(OC(F)(F)F)cc2n1-c1ccc(=O)n(CCC(=O)O)c1	4800				inhibition [28]: inactive; inhibition [27]: inactive
CC(CC(=O)O)c1cccc(-n2c(C(N)=O)cc3ccc(OC(F)(F)F)cc32)n1 (single isomer, unassigned; (+)) [listing 1 of 2 here]	500	3800			
NC(=O)c1cc2ccc(OC(F)(F)F)cc2n1-c1ccnc(CCC(=O)O)c1	240	1200	2100	1600	hepatocyte CLint [9]: < 5 µL/min/1e6 cells
CC(CC(=O)O)c1cccc(-n2c(C(N)=O)cc3ccc(OC(F)(F)F)cc32)n1 (single isomer, unassigned; (+)) [listing 2 of 2 here]					inhibition [27]: inactive
COC(Cc1cccc(-n2c(C(N)=O)cc3ccc(OC(F)(F)F)cc32)c1)C(=O)O (stereo in doubt) [listing 1 of 2 here]	170	2700			
NC(=O)c1cc2ccc(OC(F)(F)F)cc2n1-c1cccc(CCC(=O)O)c1				310	hepatocyte CLint [9]: 9.33 µL/min/1e6 cells; CL free [8]: 1446 mL/min/kg
COC(Cc1cccc(-n2c(C(N)=O)cc3ccc(OC(F)(F)F)cc32)c1)C(=O)O (stereo in doubt) [listing 2 of 2 here]					inhibition [27]: inactive
